In brackets after ≈: the same amount, converted by molar mass.
Conditions: for aqueous solubility: pH 6.8

MDR1-MDCK efflux ratio	intrinsic clearance, human liver microsomes	intrinsic clearance, rat liver microsomes	aqueous solubility	fraction unbound, human plasma	fraction unbound, rat plasma	SMILES
0.805	19.6 mL/min/kg	429 mL/min/kg	–	–	–	O=C(CSCCc1ccncc1)Nc1ccccc1
1.67	12.1 mL/min/kg	162 mL/min/kg	–	–	–	CO[C@@H]1CC[C@@H](N(C)C(=O)COc2c(C)cccc2C)[C@H]1O
24	17.4 mL/min/kg	190 mL/min/kg	–	–	–	Cc1cc2nc(CCC(=O)N3CCc4n[nH]cc4C3)[nH]c2cc1C
11.8	≤ 4.74 mL/min/kg	13.3 mL/min/kg	–	–	–	CC(C)(O)CCn1cc2cc(NC(=O)c3ccn(C(F)F)n3)c(OCC3COC3)cc2n1
0.674	7.74 mL/min/kg	56.5 mL/min/kg	46 µg/mL (≈ 163 µM)	–	–	O=c1ccc(-c2ccc(F)cc2)nn1Cc1ccncc1
3.18	≤ 4.74 mL/min/kg	189 mL/min/kg	28.4 µg/mL (≈ 98.9 µM)	–	–	Cc1ccc(-n2cc(C(=O)NCCN(C)C)nn2)cc1C
0.661	≤ 4.74 mL/min/kg	≤ 10.7 mL/min/kg	32.2 µg/mL (≈ 136 µM)	–	–	CS(=O)(=O)Cc1ccn(-c2ccccc2)n1
0.669	34.6 mL/min/kg	2230 mL/min/kg	–	–	–	Cc1nc(-c2ccc(S(=O)(=O)N(C)C)cc2)cc(C(C)C)n1
52	18.8 mL/min/kg	244 mL/min/kg	49.4 µg/mL (≈ 147 µM)	–	–	Cn1nc(C2CC2)c2[nH]c(-c3cccc(CN4CCOCC4)c3)nc21
1.91	≤ 4.74 mL/min/kg	19.4 mL/min/kg	–	–	–	O=c1cc(-c2cc(F)c(Cl)nc2Cl)[nH]c2c(-c3ccccc3)c(C(F)(F)F)nn12
13.6	≤ 4.74 mL/min/kg	76.8 mL/min/kg	–	–	–	COc1cccc(Oc2ccc(NC(=O)CN3CCCCC3=O)cn2)c1
0.71	190 mL/min/kg	1720 mL/min/kg	13.7 µg/mL (≈ 39.5 µM)	–	–	Fc1cccc(CCNCc2cc(-c3ccccc3)cn3nnnc23)c1
62.7	≤ 4.74 mL/min/kg	44.6 mL/min/kg	27 µg/mL (≈ 79.4 µM)	–	–	O=C(c1ccc2c(c1)OCO2)N1CCC(c2n[nH]c(C3CC3)n2)CC1
–	≤ 4.74 mL/min/kg	299 mL/min/kg	–	–	–	Cc1nc2ccccc2n1CCNc1ncccn1
1.51	15 mL/min/kg	68.4 mL/min/kg	40 µg/mL (≈ 138 µM)	–	–	Cn1cc(CCNC(=O)N2CCc3sccc3C2)cn1
3.58	≤ 4.74 mL/min/kg	971 mL/min/kg	31 µg/mL (≈ 121 µM)	–	–	Cc1cccc(NCCc2cn3c(n2)CCCC3)n1
–	9.77 mL/min/kg	133 mL/min/kg	–	0.0176	0.0283	COc1nc2sc(C(=O)NC3CC3)c(N)c2c(C)c1Cl
0.496	–	–	0.45 µg/mL (≈ 1.38 µM)	–	–	COc1cccc2cc(C(N)=S)/c(=N/Nc3ccccc3)oc12
0.671	≤ 4.74 mL/min/kg	17.5 mL/min/kg	–	–	–	CCOc1ccc(OCCN2CCN(C(C)=O)CC2)cc1
4.57	8.56 mL/min/kg	254 mL/min/kg	23.1 µg/mL (≈ 66.9 µM)	–	–	Cc1nc2cc(NC(=O)Cc3c(C)nc4ccccc4c3C)ccc2o1
0.358	–	–	0.1 µg/mL (≈ 0.367 µM)	–	–	Fc1cccc(Cn2nnc(-c3ccccc3)n2)c1F
1.52	≤ 4.74 mL/min/kg	54.3 mL/min/kg	–	–	–	CN(CCO)C(=O)c1ccc(-c2cccc(C(F)(F)F)n2)cc1
0.695	166 mL/min/kg	2290 mL/min/kg	–	–	–	Cc1ccc(Cl)c(OC[C@@]2(O)CN(C3CCC3)CC[C@@H]2O)c1
0.67	6.52 mL/min/kg	129 mL/min/kg	2.33 µg/mL (≈ 7.92 µM)	–	–	Cc1ccc(C)c(C(=O)Nc2cnc3c(c2)c(C)nn3C)c1
3.94	32.1 mL/min/kg	391 mL/min/kg	3.8 µg/mL (≈ 8.97 µM)	–	–	C=CC(=O)Nc1cccc(Nc2nc(Nc3ccc(OCCOC)cc3)ncc2F)c1
0.25	124 mL/min/kg	164 mL/min/kg	10.7 µg/mL (≈ 31.4 µM)	–	–	O=C(Nc1ccc2c3c(cccc13)CC2)c1ccnc(-n2cncn2)c1
–	≤ 4.74 mL/min/kg	253 mL/min/kg	–	–	–	CCCn1cc(CNC(=O)CN2CCCC2)cn1

MDR1-MDCK efflux ratio	intrinsic clearance, human liver microsomes	intrinsic clearance, rat liver microsomes	aqueous solubility	fraction unbound, human plasma	fraction unbound, rat plasma	SMILES
6.41	≤ 4.74 mL/min/kg	–	13.1 µg/mL (≈ 37.3 µM)	–	–	N#Cc1ccc(NS(=O)(=O)c2c[nH]c3nc(Cl)ccc23)c(F)c1
0.798	188 mL/min/kg	1480 mL/min/kg	45.5 µg/mL (≈ 154 µM)	–	–	C=CCN(Cc1cccnc1)c1nc(C)nc2sccc12
0.734	≤ 4.74 mL/min/kg	134 mL/min/kg	–	–	–	Clc1cnc(NCC2(CN3CCCC3)CC2)nc1
0.61	80.8 mL/min/kg	2430 mL/min/kg	–	–	–	CN(C)c1cncc(-c2ccc(S(=O)(=O)N(C)C)cc2)n1
1.6	12.4 mL/min/kg	497 mL/min/kg	87.3 µg/mL (≈ 274 µM)	–	–	Cc1nn(C)c(C)c1NC(=O)CN1CCC2(CCCCC2)CC1
75.6	9.16 mL/min/kg	108 mL/min/kg	29.5 µg/mL (≈ 68.7 µM)	–	–	CCCCC1=NC2(CCCC2)C(=O)N1Cc1ccc(-c2ccccc2-c2nnn[nH]2)cc1
–	28.1 mL/min/kg	141 mL/min/kg	1.9 µg/mL (≈ 3.72 µM)	–	–	CNC(=O)c1ccc(Nc2ncc(C(F)(F)F)c(NCc3nccnc3N(C)S(C)(=O)=O)n2)cc1
50.8	57.8 mL/min/kg	573 mL/min/kg	–	0.0931	0.0171	C=CC(=O)N1CCC([C@@H]2CCNc3c(C(N)=O)c(-c4ccc(Oc5ccccc5)cc4)nn32)CC1
0.502	22.8 mL/min/kg	48.3 mL/min/kg	–	–	–	c1ccc(Nc2nc(N3CCOCC3)nc(N3CCOCC3)n2)cc1
0.786	≤ 4.74 mL/min/kg	≤ 10.7 mL/min/kg	54.7 µg/mL (≈ 225 µM)	–	–	Cc1nn(C)c(C)c1C(=O)NCc1ccccc1
0.785	795 mL/min/kg	1680 mL/min/kg	43 µg/mL (≈ 130 µM)	–	–	COC(=O)c1cc(F)c(C)c(NC(=O)CCCc2ccccn2)c1
4.76	11.6 mL/min/kg	278 mL/min/kg	–	–	–	CCc1cc(N2CCOCC2)nc(C2CCN(C(=O)C3CC3)CC2)n1
30.1	≤ 4.74 mL/min/kg	82.1 mL/min/kg	–	–	–	COc1cccc(C(=O)N(C)CC(F)(F)F)c1OCCCN
1.08	150 mL/min/kg	960 mL/min/kg	51.7 µg/mL (≈ 159 µM)	–	–	CC(C(O)c1ccc(O)cc1)N1CCC(Cc2ccccc2)CC1 (centres undefined)
19.8	≤ 4.74 mL/min/kg	1140 mL/min/kg	–	–	–	CC(=O)NC1CCC(NCCc2c(C)cccc2C)CC1 (centres undefined)
1.09	181 mL/min/kg	3350 mL/min/kg	4.7 µg/mL (≈ 11.2 µM)	0.0502	–	COc1ccc(OCC(=O)Nc2cccc(Cl)c2N2CCN(C(C)=O)CC2)cc1
0.809	83.2 mL/min/kg	178 mL/min/kg	28.3 µg/mL (≈ 141 µM)	–	–	c1ccc(-c2noc(NC3CC3)n2)cc1
0.702	13.3 mL/min/kg	1600 mL/min/kg	–	–	–	CN(Cc1cnc2ccccc2n1)S(=O)(=O)N1CCCC1
7.58	≤ 4.74 mL/min/kg	50.4 mL/min/kg	–	–	–	COc1ccc(CN2CCN(C(=O)C3CCN(C(=O)C4CC4)CC3)CC2)cc1
–	≤ 4.74 mL/min/kg	≤ 10.7 mL/min/kg	–	–	–	C[C@H]1O[C@@H](Oc2c(-c3cc(O)c(O)c(O)c3)oc3cc(O)cc(O)c3c2=O)[C@@H](O)[C@H](O)[C@H]1O
1.92	≤ 4.74 mL/min/kg	–	–	0.75	–	NCC1CCCC1NC(=O)c1cc(N2CCNC2=O)ccc1F (centres undefined)
25.4	≤ 4.74 mL/min/kg	≤ 10.7 mL/min/kg	37.2 µg/mL (≈ 113 µM)	–	–	CCN1CCC(CNC(=O)c2cc(C)nc3cc(F)ccc23)CC1
–	327 mL/min/kg	1380 mL/min/kg	–	–	–	Cc1cc(SCc2ccc(Cl)nc2)nc2ccccc12
0.474	144 mL/min/kg	301 mL/min/kg	–	–	–	COC(=O)C1=NOC2(CCN(CCC(C)(C)C)CC2)C1
0.813	9.63 mL/min/kg	109 mL/min/kg	–	–	–	Cc1cc(NC(=O)[C@H](C)N(C)C)c2ccccc2n1
10.4	85.8 mL/min/kg	701 mL/min/kg	20.3 µg/mL (≈ 68.4 µM)	–	–	CN(CC(=O)NC1(C#N)CCCCC1)c1cccc(C#N)c1
0.566	≤ 4.74 mL/min/kg	4990 mL/min/kg	38.8 µg/mL (≈ 133 µM)	–	–	CN(Cc1ccccc1)C(=O)c1ccc(-n2cccn2)nc1

SMILES	MDR1-MDCK efflux ratio	intrinsic clearance, human liver microsomes	intrinsic clearance, rat liver microsomes	aqueous solubility	fraction unbound, human plasma	fraction unbound, rat plasma
CC(C)c1noc(CNC(=O)N2C[C@H]3C[C@@H](C2)c2cccc(=O)n2C3)n1	3.14	7.35 mL/min/kg	73.7 mL/min/kg	–	–	–
Clc1ccc(COc2cccc(N3CCNCC3)c2)cc1	–	5.23 mL/min/kg	320 mL/min/kg	23.2 µg/mL (≈ 76.6 µM)	–	–
